Data as given in ChEMBL document CHEMBL5149974, “Antimicrobial drugs bearing guanidine moieties: A review” (Eur J Med Chem, 2021).
In brackets after ≈: the same amount, converted by molar mass.

What was measured:
[1] = test system: Mycobacterium tuberculosis; assay: Potentiation of isoniazid-induced antimycobacterial activity against Mycobacterium tuberculosis H37Rv assessed as reduction in isoniazid MIC at 250 uM incubated for 48 hrs by alamar blue staining based analysis; format: functional
[2] = test system: Mycobacterium tuberculosis; assay: Potentiation of isoniazid-induced antimycobacterial activity against Mycobacterium tuberculosis H37Rv assessed as reduction in isoniazid MIC at 125 uM incubated for 48 hrs by alamar blue staining based analysis; format: functional
[3] = test system: Mycobacterium tuberculosis; assay: Anti-mycobacterial activity against Mycobacterium tuberculosis H37Rv ATCC […] assessed as bacterial growth inhibition by alamar blue assay; format: functional
[4] = test system: Pseudomonas aeruginosa; assay: Antibacterial activity against Pseudomonas aeruginosa CMCC 10104 assessed as inhibition of bacterial growth incubated for 24 hrs by microplate reader analysis; format: functional
[5] = test system: Enterococcus faecalis; assay: Antibacterial activity against Enterococcus faecalis assessed as inhibition of bacterial growth measured after 24 hrs; format: functional
[6] = test system: Staphylococcus aureus; assay: Antibacterial activity against Staphylococcus aureus CMCC 25923 assessed as inhibition of bacterial growth incubated for 24 hrs by microplate reader analysis; format: functional
[7] = test system: Enterococcus faecalis; assay: Antibacterial activity against Enterococcus faecalis CMCC 29212 assessed as inhibition of bacterial growth incubated for 24 hrs by microplate reader analysis; format: functional
[8] = test system: Escherichia coli; assay: Antibacterial activity against Escherichia coli CMCC 44568 assessed as inhibition of bacterial growth incubated for 24 hrs by microplate reader analysis; format: functional
[9] = test system: Bacillus subtilis; assay: Antibacterial activity against Bacillus subtilis CMCC 63501 assessed as inhibition of bacterial growth incubated for 24 hrs by microplate reader analysis; format: functional
[10] = test system: Pseudomonas aeruginosa; assay: Antibacterial activity against multidrug-resistant Pseudomonas aeruginosa ATCC BAA-2111 assessed as inhibition of bacterial growth incubated for 24 hrs by microplate reader analysis; format: functional
[11] = test system: Staphylococcus aureus; assay: Antibacterial activity against Staphylococcus aureus CMCC (B) 26003 assessed as inhibition of bacterial growth incubated for 24 hrs by microplate reader analysis; format: functional
[12] = test system: Staphylococcus aureus; assay: Antibacterial activity against Staphylococcus aureus assessed as inhibition of bacterial growth measured after 24 hrs; format: functional
[13] = test system: Escherichia coli; assay: Antibacterial activity against Escherichia coli CMCC 25922 assessed as inhibition of bacterial growth incubated for 24 hrs by microplate reader analysis; format: functional
[14] = test system: Streptococcus mutans; assay: Antibacterial activity against Streptococcus mutans BNCC 336931 assessed as inhibition of bacterial growth incubated for 24 hrs by microplate reader analysis; format: functional
[15] = test system: Staphylococcus aureus; assay: Antibacterial activity against multidrug-resistant Staphylococcus aureus ATCC 43300 assessed as inhibition of bacterial growth incubated for 24 hrs by microplate reader analysis; format: functional
[16] = test system: Bacillus subtilis; assay: Antibacterial activity against Bacillus subtilis assessed as inhibition of bacterial growth measured after 24 hrs; format: functional
[17] = test system: Pseudomonas aeruginosa; assay: Antibacterial activity against Pseudomonas aeruginosa CMCC 27853 assessed as inhibition of bacterial growth incubated for 24 hrs by microplate reader analysis; format: functional
[18] = test system: Staphylococcus aureus; assay: Antibacterial activity against multidrug-resistant Staphylococcus aureus ATCC 33591 assessed as inhibition of bacterial growth incubated for 24 hrs by microplate reader analysis; format: functional
[19] = test system: Staphylococcus aureus; assay: Antibacterial activity against Staphylococcus aureus assessed as bacterial growth inhibition incubated for 24 hrs; format: functional
[20] = test system: Staphylococcus aureus; assay: Antibacterial activity against Staphylococcus aureus assessed as bacterial growth inhibition incubated for 18 to 24 hrs by broth microdilution assay; format: functional; settings: time 18-24 hrs
[21] = test system: Plasmodium vinckei petteri; assay: Antimalarial activity against Plasmodium vinckei petteri 279BY infected in Swiss mouse assessed as reduction in parasitemia administered orally once daily for 4 consecutive days and measured on day 5; format: functional; settings: 120 h, route po, time 5 day
[22] = test system: Plasmodium vinckei petteri; assay: Antimalarial activity against Plasmodium vinckei petteri 279BY infected in Swiss mouse assessed as reduction in parasitemia administered intraperitoneally once daily for 4 consecutive days and measured on day 5; format: functional; settings: 120 h, route ip, time 5 day
[23] = test system: Plasmodium falciparum; assay: Antiplasmodial activity against Plasmodium falciparum; format: functional, organism-based
[24] = test system: Escherichia coli; assay: Antibacterial activity against Escherichia coli CCUG assessed as growth inhibition incubated for 18 hrs by broth microdilution method; format: functional
[25] = test system: Bacillus subtilis; assay: Antibacterial activity against Bacillus subtilis ATCC 6633 assessed as growth inhibition incubated for 18 hrs by broth microdilution method; format: functional
[26] = test system: Acinetobacter baumannii; assay: Antibacterial activity against Acinetobacter baumannii ATCC 17978 assessed as growth inhibition incubated for 18 hrs by broth microdilution method; format: functional
[27] = test system: Klebsiella pneumoniae; assay: Antibacterial activity against Klebsiella pneumoniae ATCC 13833 assessed as growth inhibition incubated for 18 hrs by broth microdilution method; format: functional
[28] = test system: Enterococcus faecalis; assay: Antibacterial activity against Enterococcus faecalis ATCC 29212 assessed as growth inhibition incubated for 18 hrs by broth microdilution method; format: functional
[29] = test system: Staphylococcus aureus; assay: Antibacterial activity against Staphylococcus aureus ATCC 25923 assessed as growth inhibition incubated for 18 hrs by broth microdilution method; format: functional
[30] = test system: Staphylococcus epidermidis; assay: Antibacterial activity against Staphylococcus epidermidis ATCC 14990 assessed as growth inhibition incubated for 18 hrs by broth microdilution method; format: functional
[31] = test system: Pseudomonas aeruginosa; assay: Antibacterial activity against Pseudomonas aeruginosa ATCC 27853 assessed as growth inhibition incubated for 18 hrs by broth microdilution method; format: functional
[32] = Inhibition of Mycobacterium smegmatis biofilm fromation incubated for 48 hrs by crystal violet staining based analysis; format: functional, Mycolicibacterium smegmatis
[33] = test system: Mycobacterium tuberculosis; assay: Anti-mycobacterial activity against Mycobacterium tuberculosis H37Rv assessed as growth inhibition incubated for 48 hrs by alamar blue staining based analysis; format: functional
[34] = test system: Staphylococcus aureus; assay: Antibacterial activity against methicillin-resistant Staphylococcus aureus ATCC 33591 assessed as bacterial growth inhibition by CLSI based broth microdilution method; format: functional
[35] = test system: Staphylococcus aureus; assay: Potentiation of ethidium bromide-induced antibacterial activity against Staphylococcus aureus 1199B overexpressing NorA efflux pump assessed as fold reduction in ethidium bromide MIC by microdilution method; format: functional
[36] = test system: Staphylococcus aureus; assay: Potentiation of Norfloxacin-induced antibacterial activity against Staphylococcus aureus 1199B overexpressing NorA efflux pump assessed as fold reduction in norfloxacin MIC by microdilution method; format: functional
[37] = test system: Staphylococcus aureus; assay: Potentiation of Norfloxacin-induced antibacterial activity against Staphylococcus aureus 1199B overexpressing NorA efflux pump assessed as norfloxacin MIC by microdilution method; format: functional
[38] = test system: Staphylococcus aureus; assay: Potentiation of ethidium bromide-induced antibacterial activity against Staphylococcus aureus 1199B overexpressing NorA efflux pump assessed as ethidium bromide MIC by microdilution method; format: functional
[39] = test system: Mycobacterium tuberculosis; assay: Antibacterial activity against Mycobacterium tuberculosis H37Rv assessed as bacterial growth inhibition by vertical diffusion method; format: functional

In the case of `CCCCCCc1ccc(-c2c[nH]c(N)n2)cc1`, the MIC [1] is reported as 0.039 µg/mL and the MIC [2] is reported as 0.039 µg/mL.
With `Cc1ccc(-n2nc(C)c3c(-c4c(C)nn(-c5ccccc5)c4Cl)nc(N)nc32)cc1` the MIC [3] was 1.2 µg/mL (≈ 2.79 µM).
`N=C(N)N/N=C/c1ccc(C#Cc2ccc(Cl)cc2)cc1` showed an MIC [4] of 0.25 µg/mL (≈ 0.842 µM), an MIC [5] of 0.25 µg/mL (≈ 0.842 µM) and an MIC [6] of 0.25 µg/mL (≈ 0.842 µM). The MIC [7] was 0.25 µg/mL (≈ 0.842 µM), the MIC [8] was 0.25 µg/mL (≈ 0.842 µM) and the MIC [9] was 0.25 µg/mL (≈ 0.842 µM). The MIC [10] was 0.25 µg/mL (≈ 0.842 µM), the MIC [11] was 0.25 µg/mL (≈ 0.842 µM) and the MIC [12] was 0.25 µg/mL (≈ 0.842 µM). The MIC [13] was 0.25 µg/mL (≈ 0.842 µM), the MIC [14] was 0.25 µg/mL (≈ 0.842 µM) and the MIC [15] was 0.25 µg/mL (≈ 0.842 µM). For the same molecule, the MIC [16] was 0.25 µg/mL (≈ 0.842 µM), the MIC [17] was 0.25 µg/mL (≈ 0.842 µM) and the MIC [18] was 0.25 µg/mL (≈ 0.842 µM).
`Cl.N=C(N)NCCCNC(=O)C(=O)c1cc(Cl)ccc1NC(=O)c1ccc2ccccc2c1` gave an MIC [19] of 8 µg/mL.
Work on `Cl.N=C(N)NCCCNC(=O)C(=O)c1cc(Br)ccc1NC(=O)c1ccc2ccccc2c1` yielded an MIC [19] of 6 µg/mL.
Molecule `N=C(N)NCCNC(=O)[C@H](Cc1c[nH]c2ccccc12)NC(=O)c1cc(F)ccc1NC(=O)c1ccc2ccccc2c1` has an MIC [20] of 2 µM (≈ 1.16 µg/mL).
In the case of `Cn1oc(=O)n(CCCCCCCCCCCCn2c(=O)on(C)c2=O)c1=N`, the ED50 [21] is reported as 82 mg/kg and the ED50 [22] is reported as 4 mg/kg.
Work on `CCC/C=C\CCC[C@@H]1C2N=C(N)N[C@H]3CC[C@@H](C[C@H]1CCC)C23` (stereo partly drawn) yielded an IC50 [23] of 8.37 µM.
Molecule `N=C(N)NCCCCCCCCN(CCCCCCCCNC(=N)NCC1CC1)C(=O)N(CCCCCCCCNC(=N)N)CCCCCCCCNC(=N)NCC1CC1` has an MIC [24] of 0.5 µg/mL (≈ 0.591 µM), an MIC [25] of 0.5 µg/mL (≈ 0.591 µM) and an MIC [26] of 0.5 µg/mL (≈ 0.591 µM). The MIC [27] was 0.5 µg/mL (≈ 0.591 µM), the MIC [28] was 0.5 µg/mL (≈ 0.591 µM) and the MIC [29] was 0.5 µg/mL (≈ 0.591 µM). The MIC [30] was 0.5 µg/mL (≈ 0.591 µM) and the MIC [31] was 0.5 µg/mL (≈ 0.591 µM).
With `Cc1nn(-c2ccccc2)c(Cl)c1-c1nc(N)nc2c1c(C)nn2-c1ccc(S(=O)(=O)O)cc1Cl` the MIC [3] was 1.2 µg/mL (≈ 2.26 µM).
For `CCCCCCc1ccc(-c2nc(N)[nH]c2C(F)(F)F)cc1`, the IC50 [32] was < 10 µM.
For `NNC(=O)c1ccncc1` [ISONIAZID], the MIC [33] was 0.625 µg/mL (≈ 4.56 µM).
In the case of `Cc1nn(-c2ccccc2)c(Cl)c1-c1nc(N)nc2c1c(C)nn2-c1cccc(Cl)c1`, the MIC [3] is reported as 1.2 µg/mL (≈ 2.66 µM).
In the case of `CCCCCOc1ccc(-c2nc(N)[nH]c2C(F)(F)F)cc1`, the IC50 [32] is reported as < 10 µM.
Molecule `N=C(N)NC[C@H]1OC(O[C@H]2C(NC(=O)[C@H](O)CCN)C[C@H](N)[C@@H](O[C@H]3O[C@H](CN)[C@@H](O)[C@H](O)[C@H]3O)[C@@H]2O)[C@H](O)[C@@H](N)[C@@H]1O` (stereo partly drawn) has an MIC [34] of 3.12 µg/mL (≈ 4.99 µM).
For `Cl.N=C(N)N/N=C/c1ccnc2ccccc12`, the “fold change (FC)” value [35] was “<=32”, the “fold change (FC)” value [36] was “<=16” and the MIC [37] was 8 µg/mL. The MIC [38] was 1 µg/mL.
With `N=C(N)Nc1nnc2nccn2n1` the MIC [39] was 1.5 µg/mL (≈ 8.42 µM).
